One assay addresses T1, c-Met (Homo sapiens, UniProt P08581).
T1 construct: pY^1234pY^1235c-Met(1074-1366) kinase domain
The assay is described as follows: In vitro c-Met kinase assay (AlphaScreen), Test (c). Conditions: read-out: IC50 versus c-Met tyrosine kinase. The assay is classed as biochemical. The procedure: The assay used AlphaScreen technology (Gray et al., Analytical Biochemistry, 2003, 313: 234-245) to determine the ability of test compounds to prevent the activation of c-Met, in which wild type activated c-Met phosphorylates a mutant form of c-Met lacking catalytic activity but retaining the ability to be phosphorylated on the activating residues.
Kinase activity assays were performed in 384-well low-volume white plates (Greiner, 784075) with a total volume of 12 μL in each well. Each kinase reaction contained 40 pg (100 pM) pY^1234pY^1235c-Met(1074-1366) kinase domain, 44 ng (100 nM) cMyc-[D1204N,R1208Q]c-Met(1069-1366)-biotin, 25 mM HEPES (pH7.4), 0.1 mM sodium orthovanadate, 1 mM DTT, 0.01% (v/v) Tween-20, 10 mM magnesium chloride, 0.1% BSA, 50 μM ATP.
Various concentrations of test compounds were each added in 6% (v/v) DMSO to yield a final assay DMSO concentration of 1% (v/v). […] Plates were read using an Envision (Perkin Elmer) with excitation at 680 nm, emission […]. […]
A general note: Alpha assays give light when donor and acceptor beads are brought close together.

Assay [1] concerns the target T2, recombinant Axl tyrosine kinase (Homo sapiens, UniProt P30530).
T2 construct: encompassing amino acids 473 to 894 of Axl; GST (N); made in house; host or cells: SF126 insect cells
T2 sequence (P30530 473-894): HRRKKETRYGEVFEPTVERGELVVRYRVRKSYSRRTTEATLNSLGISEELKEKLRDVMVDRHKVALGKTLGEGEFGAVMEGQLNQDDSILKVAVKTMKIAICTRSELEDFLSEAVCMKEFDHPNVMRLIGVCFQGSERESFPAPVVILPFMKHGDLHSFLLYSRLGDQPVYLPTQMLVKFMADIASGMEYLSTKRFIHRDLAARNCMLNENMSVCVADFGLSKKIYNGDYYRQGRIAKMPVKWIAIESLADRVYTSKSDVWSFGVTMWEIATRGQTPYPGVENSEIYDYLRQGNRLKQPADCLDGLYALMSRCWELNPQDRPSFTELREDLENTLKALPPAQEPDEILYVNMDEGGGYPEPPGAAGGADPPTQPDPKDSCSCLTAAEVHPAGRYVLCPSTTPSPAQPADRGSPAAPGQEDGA
The assay can be described thus: In vitro Axl kinase assay (AlphaScreen), Test (a). The assay is classed as biochemical.

The target in assay [2] is T3, cMet expressed on MKN45 cells (Homo sapiens, UniProt P08581).
T3 construct: endogenous in cells; host or cells: MKN45
T3 sequence (P08581 25-1390): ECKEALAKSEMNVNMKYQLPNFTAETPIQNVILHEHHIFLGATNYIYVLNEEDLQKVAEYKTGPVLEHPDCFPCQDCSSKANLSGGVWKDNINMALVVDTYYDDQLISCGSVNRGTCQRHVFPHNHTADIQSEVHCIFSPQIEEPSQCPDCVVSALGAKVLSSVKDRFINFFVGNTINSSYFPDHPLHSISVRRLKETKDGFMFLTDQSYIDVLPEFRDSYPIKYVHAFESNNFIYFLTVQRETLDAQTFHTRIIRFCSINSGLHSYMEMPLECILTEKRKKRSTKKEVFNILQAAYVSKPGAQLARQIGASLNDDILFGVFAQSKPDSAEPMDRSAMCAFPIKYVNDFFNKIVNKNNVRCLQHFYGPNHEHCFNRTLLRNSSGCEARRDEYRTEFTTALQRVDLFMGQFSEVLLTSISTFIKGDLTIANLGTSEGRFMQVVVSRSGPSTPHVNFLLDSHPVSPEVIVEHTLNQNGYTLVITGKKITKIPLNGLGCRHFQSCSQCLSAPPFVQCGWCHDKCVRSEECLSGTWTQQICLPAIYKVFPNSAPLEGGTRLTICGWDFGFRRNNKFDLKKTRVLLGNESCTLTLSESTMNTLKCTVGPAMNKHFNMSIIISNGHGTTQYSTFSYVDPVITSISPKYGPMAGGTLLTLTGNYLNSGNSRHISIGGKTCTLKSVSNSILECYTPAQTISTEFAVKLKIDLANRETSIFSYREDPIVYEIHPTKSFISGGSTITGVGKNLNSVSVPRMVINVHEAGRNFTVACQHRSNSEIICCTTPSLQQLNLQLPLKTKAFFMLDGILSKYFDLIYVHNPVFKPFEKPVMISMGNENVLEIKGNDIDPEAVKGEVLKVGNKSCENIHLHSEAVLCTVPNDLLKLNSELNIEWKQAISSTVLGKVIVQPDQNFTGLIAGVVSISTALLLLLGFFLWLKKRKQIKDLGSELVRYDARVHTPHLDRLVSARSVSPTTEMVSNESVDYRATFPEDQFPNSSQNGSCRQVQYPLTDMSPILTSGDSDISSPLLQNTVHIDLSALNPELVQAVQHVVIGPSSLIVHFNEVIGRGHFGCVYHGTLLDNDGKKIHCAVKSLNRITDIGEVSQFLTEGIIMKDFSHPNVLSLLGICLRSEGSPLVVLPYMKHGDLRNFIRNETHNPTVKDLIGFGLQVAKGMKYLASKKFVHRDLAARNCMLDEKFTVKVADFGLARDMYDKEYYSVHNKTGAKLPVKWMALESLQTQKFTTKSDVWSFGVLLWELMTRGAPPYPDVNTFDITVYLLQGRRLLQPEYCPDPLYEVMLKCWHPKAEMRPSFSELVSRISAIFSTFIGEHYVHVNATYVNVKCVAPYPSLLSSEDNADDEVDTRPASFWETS
The assay is described as follows: Cellular c-Met inhibition assay, Test (d). The assay is classed as cell-based. The source says:
These and other assays can be used to indicate the ability of a test compound to inhibit c-Met mediated cellular signalling in mammalian cell lines, for example the human tumour cell line MKN45. This is achieved by measuring the amount of phosphorylated c-Met within a cell following compound treatment.
MKN45 cells were routinely passaged in DMEM (Gibco BRL, product number 41966-029) plus 10% foetal calf serum (FCS), 1% L-glutamine (Gibco BRL, product number 25030024), to a confluence not greater than 85%. To undertake the assay, MKN45 cells were seeded at 2×10^4 cells/well in DMEM plus 0.5% foetal calf serum, 1% L-glutamine in 96 well plates (Costar, product number 3904) and incubated at 37° C. (+5% CO2) in a humidified incubator. Once the cells had fully adhered (typically following overnight incubation) plates were dosed with 25 μl compound (diluted from 10 mM stock in DMSO using serum free DMEM) and the plates were returned to a humidified 37° C. (+5% CO2) incubator for one hour. Following incubation the cells were fixed by adding formaldehyde (4% final concentration) and incubating at room temperature for 20 minutes. […] The plates were read using an Arrayscan II (Cellomics). […]

Where two headings read alike, the source gives them in different places.

T1 sequence (P08581 1074-1366): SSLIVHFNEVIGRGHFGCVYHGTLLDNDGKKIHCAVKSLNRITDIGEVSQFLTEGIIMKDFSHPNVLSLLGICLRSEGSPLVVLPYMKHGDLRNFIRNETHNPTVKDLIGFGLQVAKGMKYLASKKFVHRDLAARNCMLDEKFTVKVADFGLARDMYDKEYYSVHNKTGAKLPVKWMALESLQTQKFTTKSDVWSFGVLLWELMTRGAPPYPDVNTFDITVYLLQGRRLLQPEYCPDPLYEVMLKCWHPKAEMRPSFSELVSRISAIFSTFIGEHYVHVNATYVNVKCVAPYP

`CN1CCC(n2cc(-c3cnc(N)c(-c4nc5ccc(F)cc5o4)c3)cn2)CC1` [Example 7.2]: the IC50 at c-Met is roughly 1950 nM; in assay [1] (Test (a), read-out: IC50 versus Axl tyrosine kinase), roughly 24 nM; in assay [2] (MKN45 cells, read-out: IC50 versus cellular phospho-c-Met (pYpYpY1230/4/5)) it was roughly 590 nM; in assay [2] (later recalculated, read-out: IC50 versus cellular phospho-c-Met (pYpYpY1230/4/5), mean recalculated from a larger number of replicates) it was 950 nM. In addition, the “% Axl tyrosine kinase inhibition at 1 μM concentration” value in assay [1] (test compound at 1 μM, first value quoted) was 96.6%.

The record behind these values is US8017611B2, “Pyridine and pyrazine derivatives -083” (AstraZeneca AB, priority 2007, dated 2011).
